Experimental findings from US9040526B2, “Benzylpyrrolidinone derivatives as modulators of chemokine receptor activity” (Bristol-Myers Squibb Company, priority 2010, dated 2015) are described below.

The assay concerns the target T1, CCR2 receptor (Homo sapiens, UniProt P41597).
T1 construct: THP-1 human monocytic leukemic cell line, which expresses endogenous CCR2; endogenous in cells; host or cells: THP-1 human monocytic leukemic cell line (whole cells)
T1 sequence (P41597 1-360 isoform P41597-2): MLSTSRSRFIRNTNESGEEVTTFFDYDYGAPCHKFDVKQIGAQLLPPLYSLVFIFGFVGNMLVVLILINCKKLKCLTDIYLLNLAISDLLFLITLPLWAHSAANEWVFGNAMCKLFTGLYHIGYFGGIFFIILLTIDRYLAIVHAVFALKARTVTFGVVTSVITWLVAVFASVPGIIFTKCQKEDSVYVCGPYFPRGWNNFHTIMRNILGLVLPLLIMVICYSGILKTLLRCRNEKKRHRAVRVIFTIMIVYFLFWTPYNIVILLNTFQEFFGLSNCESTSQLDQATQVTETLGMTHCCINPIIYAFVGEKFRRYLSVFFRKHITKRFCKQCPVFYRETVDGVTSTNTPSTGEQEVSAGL
The assay is described as follows: THP-1 monocytic cell binding: whole cell-based radioligand competition assay (125I-human MCP-1). To be noted: THP-1 cells expressing endogenous CCR2; 125I-MCP-1 tracer 0.2 nM; n = 1 unless otherwise noted. The procedure: THP-1 Monocytic Cell Binding: Whole Cell-Based Assay
The human CCR2 binding assay was also established with the THP-1 human monocytic leukemic cell line, which expresses endogenous CCR2, using ^125I-human MCP-1 as the tracer ligand. Radioligand competition binding assays were used for assessment of binding affinity of test compounds to the CCR2 receptor. For radioligand competition studies, 100 μl containing 2.5×10^5 THP-1 cells/well (in assay buffer containing 50 mM HEPES, pH7.4, 5 mM MgCl2, 1 mM CaCl2 and 0.5% BSA) were added to 96-well assay plates containing the test compounds in 3-fold serial dilution, with final concentrations ranging from 5 μM to 100 pM. Subsequently, 50 μl ^125I-MCP-1 radioligand at a final concentration of 0.2 nM in assay buffer were added to the reaction. After a 90 minute incubation period at room temperature, the binding reaction was terminated by harvesting on GF/B filter plates (PerkinElmer Cat. No. 6005177) followed by washing with ice-cold wash buffer (50 mM HEPES, pH 7.4, 0.1% BSA, 0.5 M NaCl) to remove unbound ligand. After washing, the plate was dried for 45 minutes at 60° C. followed by addition of 40 μl MicroScint 20 scintillation fluid, sealed and analyzed by the Packard TopCount reader. Non-specific binding was determined in the presence of 10 μM (a molar excess of 5000 fold) of an in-house CCR2 small molecule antagonist (CCR2 IC50=2 nM). Specific binding of ^125I-MCP-1 was calculated as the difference between total and non-specific binding. The competition data was plotted as a percentage inhibition of radioligand specific bound in the absence of test compound (percent of total signal). After correcting for non-specific binding, IC50 values were determined. The IC50 is defined as the concentration of test compound required to reduce ^125-MCP-1 specific binding by 50% and was calculated using the four parameter logistic equation to fit the normalized data.
Compounds of the present invention were tested in the THP-1 monocytic binding assay described above and the results shown in Table 3 below were obtained.

SMILES strings stand for the structures.

Broadly, the Ki is the dissociation constant of the complex between target and ligand, obtained from inhibition or displacement. For the molecule `CC(C)C1(CCNC2CCC(O)CC2)CC2Oc3ccc(C(F)(F)F)cc3CN2C1=O` (mixture of isomers) [Example 3i, 2-(2-((1r,4r)-4-hydroxycyclohexylamino)ethyl)-2-isopropyl-7-(trifluoromethyl)-2,3,3a,9-tetrahydro-1H-benzo[e] pyrrolo[2,1-b][1,3]oxazin-1-one], affinity was put at a Ki of 639 nM. The figure for `CC(C)C1(CCNC(C)(C)C)CC2Oc3ccc(C(F)(F)F)cc3CN2C1=O` (stereo not shown) [Example 3a, 2-(2-(tert-butylamino)ethyl)-2-isopropyl-7-(trifluoromethyl)-2,3,3,a,9-tetrahydro-1H-benzo[e]pyrrolo[2,1-b][1,3]oxazin-1-one] is 2540 nM; for `CC(C)C1(CCCN2CCC(c3ccccc3)CC2)CCN(Cc2cc(C(F)(F)F)cc(C(F)(F)F)c2)C1=O` (stereo not shown) [Example 2a, 1-(3,5-bis(trifluoromethyl)benzyl)-3-isopropyl-3-(3-(4-phenylpiperidin-1-yl)propyl)pyrrolidin-2-one] it is 3510 nM; for `CC(C)C1(CCN2CC[C@@]3(C=Cc4ccccc43)[C@@H](C)C2)CCN(Cc2cc(C(F)(F)F)cc(C(F)(F)F)c2)C1=O` (stereo partly drawn) [Example 1c, 1-(3,5-bis(trifluoromethyl)benzyl)-3-isopropyl-3-(2-((1R,3′R)-3′-methylspiro[indene-1,4′-piperidine]-1′-yl)ethyl) pyrrolidin-2-one] it is 736 nM.

On to `CC(C)C1(CCN2CCC(c3ccccc3)CC2)CC2Oc3ccc(C(F)(F)F)cc3CN2C1=O` (single isomer, unassigned) [3b, diastereomer 2], for which the affinity corresponds to a Ki of 37.8 nM. `CC(C)C1(CCN2CCCCC2)CCN(Cc2cc(C(F)(F)F)cc(C(F)(F)F)c2)C1=O` (stereo not shown) [Example 1a, 1-(3,5-bis(trifluoromethyl)benzyl)-3-isopropyl-3-(2-(piperidin-1-yl)ethyl)pyrrolidin-2-one] returned a Ki of 983 nM. `CC(C)C1(CCN2CCC3(C=Cc4ccccc43)CC2)CC2Oc3ccc(C(F)(F)F)cc3CN2C1=O` (single isomer, unassigned) [3f, diastereomer 1] had a Ki of 45.4 nM.

For `CC(C)C1(CCN2CCC(c3cccc(C(=O)O)c3)CC2)CC2Oc3ccc(C(F)(F)F)cc3CN2C1=O` (stereo not shown) [Example 3c, 3-(1-(2-(2-isopropyl-1-oxo-7-(trifluoromethyl)-2,3,3a,9-tetrahydro-1H-benzo[e]pyrrolo[2,1-b][1,3]oxazin-2-yl)ethyl)piperidin-4-yl)benzoic acid], affinity was put at a Ki of 2610 nM. To `CC(C)C1(CCN2CCc3ccccc3C2)CC2Oc3ccc(C(F)(F)F)cc3CN2C1=O` (stereo not shown) [Example 3o, 2-(2-(3,4-dihydroisoquinolin-2(1H)-yl)ethyl)-2-isopropyl-7-(trifluoromethyl)-2,3,3a,9-tetrahydro-1H-benzo[e] pyrrolo[2,1-b][1,3]oxazin-1-one] belongs 3890 nM; to `CC(C)C1(CCN2CCC(c3ccccc3)CC2)CC2Oc3ccc(C(F)(F)F)cc3CN2C1=O` (single isomer, unassigned) [3b, diastereomer 1], 934 nM.

`CC(C)C1(CCN2CCN(c3ccc(F)cc3)CC2)CC2Oc3ccc(C(F)(F)F)cc3CN2C1=O` (stereo not shown) [Example 3k, 2-(2-(4-(4-fluorophenyl)piperazin-1-yl)ethyl)-2-isopropyl-7-(trifluoromethyl)-2,3,3a,9-tetrahydro-1H-benzo[e]pyrrolo[2,1-b][1,3] oxazin-1-one] gave a Ki of 1410 nM. As for `CC(C)C1(CCN2CCC(O)(c3ccccc3)CC2)CC2Oc3ccc(C(F)(F)F)cc3CN2C1=O` (stereo not shown) [Example 3m, 2-(2-(4-hydroxy-4-phenylpiperidin-1-yl)ethyl)-2-isopropyl-7-(trifluoromethyl)-2,3,3a,9-tetrahydro-1H-benzo[e]pyrrolo[2,1-b][1,3]oxazin-1-one], the affinity, expressed as Ki, was 153 nM. In turn, `CC(C)C1(CCN2CCC3(C=Cc4ccccc43)CC2)CC2Oc3ccc(C(F)(F)F)cc3CN2C1=O` (single isomer, unassigned) [3f, diastereomer 2] returned a Ki of 11 nM. To `CC(C)C1(CCN2CCC(c3ccccc3)CC2)CCN(Cc2cc(C(F)(F)F)cc(C(F)(F)F)c2)C1=O` (stereo not shown) [Example 1b, 1-(3,5-bis(trifluoromethyl)benzyl)-3-isopropyl-3-(2-(4-phenylpiperidin-1-yl)ethyl)pyrrolidin-2-one] belongs 933 nM. The figure for `CC(C)C1(CCNC2CCOCC2)CC2Oc3ccc(C(F)(F)F)cc3CN2C1=O` (single isomer, unassigned) [3h, diastereomer 2] is 495 nM. To `CC(C)C1(CCN2CCC(c3ccccc3)C2)CC2Oc3ccc(C(F)(F)F)cc3CN2C1=O` (stereo not shown) [Example 3p, 2-isopropyl-2-(2-(3-phenylpyrrolidin-1-yl)ethyl)-7-(trifluoromethyl)-2,3,3a,9-tetrahydro-1H-benzo[e] pyrrolo[2,1-b][1,3] oxazin-1-one] belongs 23 nM; to `CC(C)C1(CCN2CCC(Cc3ccccc3)CC2)CC2Oc3ccc(C(F)(F)F)cc3CN2C1=O` (stereo not shown) [Example 3n, 2-(2-(4-benzylpiperidin-1-yl)ethyl)-2-isopropyl-7-(trifluoromethyl)-2,3,3a,9-tetrahydro-1H-benzo[e] pyrrolo[2,1-b][1,3]oxazin-1-one], 1490 nM. The molecule `CC(C)C1(CCN2CCC(n3c(=O)[nH]c4ccccc43)CC2)CC2Oc3ccc(C(F)(F)F)cc3CN2C1=O` (stereo not shown) [Example 3j, 2-isopropyl-2-(2-(4-(2-oxo-2,3-dihydro-1H-benzo[d]imidazol-1-yl)piperidin-1-yl)ethyl)-7-(trifluoromethyl)-2,3,3a,9-tetrahydro-1H-benzo[e]pyrrolo[2,1-b][1,3] oxazin-1-one] returned a Ki of 1280 nM. For the molecule `CC(C)C1(CCN2CCN(C)CC2)CC2Oc3ccc(C(F)(F)F)cc3CN2C1=O` (stereo not shown) [Example 3l, 2-isopropyl-2-(2-(4-methylpiperazin-1-yl)ethyl)-7-(trifluoromethyl)-2,3,3a,9-tetrahydro-1H-benzo[e]pyrrolo[2,1-b][1,3]oxazin-1-one], the affinity corresponds to a Ki of 7910 nM.
